This data set is described as follows: molar enthalpy of vaporization or sublimation. Conditions: 298.15 K; Crystal; drop microcalorimetry.

Numbers after ± are expanded uncertainties.

Take `Cc1cc(=O)cc(C)o1` [2,6-dimethyl-γ-pyrone]: the molar enthalpy is 20.7 ± 0.717 kcal/mol.
For `CCc1occc(=O)c1O` [2-ethyl-3-hydroxy-4H-pyran-4-one] the value was 21.8 ± 0.956 kcal/mol.

Source of the values: the NIST ThermoML archive (doi:10.1016/j.jct.2011.02.021).
